Experimental data reported in US11504414B2, “Bacterial inhibitors” (priority 2016, dated 2022).

Legend:
P. gingivalis 33277 = format: cell-based, Porphyromonas gingivalis; details: for inhibitory activity on virulence gene expression: lower efficiency than peptide4; for Relative expression level fmA / Relative expression level kgp / Relative expression level mfa1 / Relative expression level pgn0128 / Relative expression level rgpA / Relative expression level rgpA/B: peptide 16 μM in TSB; for Relative expression level fmA: mRNA by real-time PCR relative to absence of peptides = 1 unit, mean of three experiments; for Relative expression level kgp / Relative expression level mfa1 / Relative expression level pgn0128 / Relative expression level rgpA / Relative expression level rgpA/B: mRNA relative to absence of peptides = 1 unit
Method: The half inhibitory concentration (IC50) was measured by conducting three independent experiments to determine mRNA levels of fimA, mfa1, rgpA/B, and kgp in the presence of peptide4 at the concentrations 0, 4, 16, and 64 μM, respectively. The IC50 for each gene was established using a Microsoft Excel program with add-in for curve fitting. Asterisks indicate the statistical significances of IC50 of peptide4 for a specific gene when compared to that for the fimA gene (P<0.05; t test).
RNA isolation and qPCR. P. gingivalis were homogenized in Trizol Reagent (Invitrogen, Carlsbad, Calif.) and RNA was purified using an RNeasy mini spin column (Qiagen, Valencia, Calif.). RNA samples were digested on-column with RNase-free DNase, and total RNA was tested using an Agilent 2100 Bioanalyzer to ensure the quality of the samples. Amplification reactions consisted of a reverse transcription using a Bio-Rad iScript Reverse Transcription Supermix on a TC-3000 thermal cycler (Techne, Staffordshire, ST15 OSA, UK) and a real-time qRT-PCR analysis using a QuantiTect SYBR Green RT-PCR Kit (Qiagen) on an iCycler MyiQ™ Real-Time PCR detection system (Bio-Rad Laboratories, Inc, Hercules, Calif.) according to the manufacturer's instructions. P. gingivalis 16 S rRNA gene was used as a normalizing gene. The melting curve profile was analyzed to verify a single peak for each sample, which indicated primer specificity. The expression levels of the investigated genes for the test sample were determined relative to the untreated calibrator sample by using the comparative cycle threshold (ΔCT) method. ΔCT was calculated by subtracting the average CT value of the test sample from the average CT value of the calibrator sample, and the value used to calculate the ratio between the two by assuming 100% amplification efficiency.
Peptide synthesis and activity. Peptides were synthesized by PEPperPRINT and Biomatik (Delaware) and purified with High Performance Liquid Chromatography (HPLC) at 90% purity. Peptides were resuspended in nuclease/proteinase-free PBS, aliquoted, and stored at −20° C. Inhibitory activity of peptides were determined as described (Hajishengallis, G., Darveau, R. P. & Curtis, M. A. The keystone-pathogen hypothesis. Nature reviews. Microbiology 10, 717-725, doi:10.1038/nrmicro2873 (2012)) with slight modification. Peptides were mixed with 5×10^5 cells of P. gingivalis, spotted onto a TSB blood agar plate, and cultured for 60 h anaerobically. The expression levels of fimbrial and gingipain mRNA or proteins were measured using qRT-PCR or western blot analyses.
P. gingivalis 33277 was grown TSB in the presence or absence of peptide at a concentration 16 μM. Transcript levels were measured by real-time PCR. The mRNA levels of genes are indicated relative to the expression level in the absence of peptides as 1 unit. Results shown are means and standard deviations from three independent experiments. Asterisks indicate the statistical significance of expression levels at least two fold in P. gingivalis grown in TSB with/without peptides (P<0.05; t test).

[1] = test system: surface extracts of P. gingivalis 33277; test: ArcA peptide microarray binding of surface extracts; parameters: species or system Porphyromonas gingivalis; details: portions of ArcA
Method: The five highest peaks are numbered.
Protein Interaction Screening. Surface extracts of P. gingivalis were collected by sonication (1 min for three times) and centrifugation (13000 g for 30 min) followed by filtration (0.2 μm pore size). Peptide microarray analysis was performed by PEPperPRINT (Heidelberg, Germany). An ArcA microarray was generated with 409 different peptides of ArcA, and each peptide contained 15 amino acids with a peptide-peptide overlap of 14 amino acids. After blocking and washing, the array was incubated with surface extracts (100 μg/ml) isolated from P. gingivalis 33277, the 0806 mutant, or the ragB mutant. P. gingivalis surface proteins bound on the ArcA array were detected using anti-P. gingivalis antibodies and sheep anti-rabbit IgG (H+L) DyLight680. The arrays were analyzed with a LI-COR Odyssey Imaging System.

Row | Sequence | inhibitory activity on virulence gene expression (P. gingivalis 33277) | Relative expression level fmA (P. gingivalis 33277) | Relative expression level kgp (P. gingivalis 33277) | Relative expression level mfa1 (P. gingivalis 33277) | Relative expression level pgn0128 (P. gingivalis 33277) | Relative expression level rgpA (P. gingivalis 33277) | Relative expression level rgpA/B (P. gingivalis 33277) | binding to P. gingivalis surface proteins [1]
1 | VYNREEDTRIEGGDEL (listed as Streptococcus cristatus) [P3, ArcA-derived peptide from residue 208, C-terminal domain] | some inhibitory activity | 0.87 | 0.99 | 0.82 | 0.91 | 0.84 | 0.98 | demonstrated to bind
2 | NHMFADTRNRE (listed as Streptococcus cristatus) [P2, ArcA-derived peptide from residue 177, N-terminal domain] | some inhibitory activity | 0.80 | 0.90 | 0.80 | 0.88 | 0.81 | 0.78 | demonstrated to bind
3 | ELVRGRGGPRCMSMPF (listed as Streptococcus cristatus) [P5, ArcA-derived peptide from residue 389, C-terminal domain] | some inhibitory activity | 0.97 | 0.96 | 0.83 | 0.91 | 0.73 | 0.72 | demonstrated to bind
4 | IRGRETKK (listed as Streptococcus cristatus) [P1, ArcA-derived peptide from residue 97, N-terminal domain] | some inhibitory activity | 0.88 | 1.06 | 0.85 | 0.96 | 0.86 | 0.89 | demonstrated to bind
